From the METLIN SMRT retention time set (Domingo-Almenara et al. 2019)

Experiment: gradient 5% acetonitrile 3 min, to 50% in 2 min, to 85% in 15 min, held 3 min, 100 µL/min
Conditions: column: Zorbax Extend-C18 2.1 x 50 mm; eluents: water / acetonitrile, 0.1% formic acid
Summary of the method: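 Values are retention times taken from adduct peaks that software picked and an analyst inspected. The pure standards were run as mixtures of ~100 molecules on HPLC linked to a quadrupole time-of-flight mass spectrometer, in positive and negative ionization mode. A Zorbax Extend-C18 column (2.1 × 50 mm, 1.8 μm) was used at 100 μL/min with water and acetonitrile, each including 0.1% formic acid.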

RP-LC retention time [s]	Compound
645	Cc1ccccc1Cn1c(CNC(=O)Cc2ccccc2)nc2ccccc21
1070	COC(=O)c1c(-c2ccccc2)noc1NCc1ccc(OC)cc1OC
618	CC(=O)OCC(=O)NCCCOc1cccc(CN2CCCCC2)c1
1140	Cc1ccc(-c2ncc(NC(=O)c3ccc(Cl)s3)cn2)cc1
865	CC1CCN(S(=O)(=O)c2ccc(-c3nnc(C(=O)NCC4CCCO4)o3)cc2)CC1 (stereo not drawn)
638	CSc1ccc(CNC(=O)CN2CCc3[nH]c4c(C)c(C)ccc4c(=O)c3C2)cc1
890	CCC(Sc1ccc(NC(=O)c2cccc(F)c2)nn1)C(=O)OC (stereo not drawn)
794	O=C(CCSc1nnnn1-c1ccccc1)Nc1ccc2c(c1)OCO2
790	CC(Oc1ccccc1Cl)C(=O)NCCn1cnc(-c2ccccc2)cc1=O (stereo not drawn)
800	CCc1nn2c(=O)cc(CSc3nnc(-c4cccc(C)c4)o3)nc2s1
744	O=C(Cc1csc2nc(-c3ccccc3)cn12)NCc1ccc2c(c1)OCO2
966	CN(CCc1noc(COc2ccccc2)n1)C(=O)Nc1ccc(F)c(Cl)c1
607	COc1ccccc1CCC(=O)N1CCn2c(C)nnc2C1
711	O=C(c1cc(-c2ccccc2)n[nH]1)N1CC(c2nc(C3CC3)no2)C1
1120	N#Cc1cccc(NC(=O)C2CCCN(S(=O)(=O)c3cc(-c4noc(C5CCC5)n4)cs3)C2)c1 (stereo not drawn)
695	Cc1noc(C2CN(C(=O)Nc3ccc(F)cc3F)CC23CCOCC3)n1 (stereo not drawn)
822	CC(=O)N1c2ccc(S(=O)(=O)N3CCCCC3)cc2CC1C(=O)NCCC(C)C (stereo not drawn)
756	COc1ccc(C(=O)NC(c2ccccc2)c2nnc(N3CCCC3)o2)cc1 (stereo not drawn)
830	CNC(=O)N1CCCC(c2cccc(C(=O)NCc3ccc(Br)cc3)c2)C1 (stereo not drawn)
703	Cc1noc(-c2nc(-c3ccncc3)no2)n1
576	CC(C)N1CCC(OCCCNC(=O)CN2CCCc3nc(C4CC4)ncc3C2=O)CC1
624	O=C(c1ccc(S(=O)(=O)NCc2cccnc2)o1)N1CCN(c2ccccc2F)CC1
702	Cc1cc(C)cc(NC(=O)C2(C)Oc3cccnc3NC2=O)c1 (stereo not drawn)

RP-LC retention time [s]	Compound
829	CCc1ccc(N2CC(c3noc(-c4ccccn4)n3)CC2=O)cc1 (stereo not drawn)
642	O=C(C1=CCN(Cc2cccc(F)c2)CC1)N1CCN(c2ccccc2)CC1
763	O=C(Nc1ccc(F)cc1)Nc1cccn2ncnc12
638	O=C(C1CC1)N1CCCCC1c1nc(-c2cnccn2)no1 (stereo not drawn)
987	CCc1ccccc1NC(=O)N1CCCC1c1nc(-c2ccc(F)cc2F)no1 (stereo not drawn)
629	CCOC(=O)C(C(=O)N1CCN(C)CC1)C1CCCCC1 (stereo not drawn)
786	CCc1ccc(CNC(=O)C2CCc3nc(N(CC)CC)ncc3C2)cc1 (stereo not drawn)
760	O=C(c1ccc(-c2cncnc2)nc1)N1CCN(c2ccccc2F)CC1
620	Nc1nc(N)nc(C2C=CCCC2)n1 (stereo not drawn)
715	COC(=O)N1CCc2ccccc2C1C(=O)NCc1ccco1 (stereo not drawn)
805	O=C(C1CC1)N1CCc2sc(S(=O)(=O)NCc3ccc(F)cc3)cc2C1
645	Cc1ccc2cc(CCC(=O)N(C)Cc3cn(C)nc3C)c(=O)[nH]c2c1
730	O=C(Nc1ccc(OCC(=O)N2CCN(c3ccccc3)CC2)nc1)C1CC1
710	Cc1ccn2cc(-c3ccc(NC(=O)c4ccc5ccccc5c4)cc3)nc2n1
892	COc1ccc(S(=O)(=O)c2csc3c2NC(=O)CC3c2ccsc2)cc1 (stereo not drawn)
748	CCN1C(=O)c2cccnc2Sc2cc(C(=O)NCC(C)C)ccc21
1070	O=C(Nc1cnc(-c2cccc(Cl)c2)nc1)c1ccccc1
556	CCNc1cc(N2CCCC(CCC(=O)N(C)CCc3ccccn3)C2)ncn1 (stereo not drawn)
651	CCCNC(=O)C1CCCN(c2ccc(SCC(=O)Nc3c(C)cccc3C)nn2)C1 (stereo not drawn)
972	Cc1ccc(NC(=O)Cn2c(=O)cc(-c3nc(C)no3)c3ccccc32)c(C)c1
918	COc1cc(NC(=O)Cn2nc(N3CCCC3)c3ccccc3c2=O)cc(OC)c1
925	O=S(=O)(c1cccc(Cl)c1)c1nnn2c1nc(N1CCCC1)c1sccc12
805	CCc1ccc(CNC(=O)c2cn(-c3ccc(-c4nc(C)no4)cn3)cn2)cc1

RP-LC retention time [s]	Compound
741	CCC(=O)N1CCc2cc(N3CC(C(=O)Nc4ccccc4F)CC3=O)ccc21 (stereo not drawn)
664	CCNC(=O)CN1C(=O)CCSc2ccccc21
973	Cc1ccc(S(=O)(=O)N2C[C@@H](F)C[C@H]2C(=O)N2CCc3ccccc3C2)cc1C
1090	Cc1ccccc1Cc1nc(C2CC(=O)N(c3ccc(F)c(Cl)c3)C2)no1 (stereo not drawn)
730	Cc1noc(-c2ccc(OC3CN(C(=O)NC(C)C)C3)cc2)n1
805	O=C1NCCCCCCN(C(=O)Nc2ccccc2)[C@H]2CCCC[C@@H]12
1090	Cc1ccc(-c2nc(-c3ccc(S(=O)(=O)N4CCC(C(=O)N5CCCC5)CC4)cc3)no2)cc1
738	N#Cc1ccc(-c2cnc3[nH]cc(NC(=O)c4cccnc4)c3c2)cc1
770	Cc1csc(-c2cc(S(=O)(=O)N3CCOCC3)cn2CC(=O)N2CCCC2)n1
931	Cc1ccc(-n2c(=O)c3c(cc(C)n3C)n(CC(=O)Nc3ccc(C)c(F)c3)c2=O)cc1
810	CN(C)S(=O)(=O)c1ccc(C(=O)Nc2nc(-c3ccc4c(c3)NC(=O)CO4)cs2)cc1
934	CC1=C(C(=O)N(CC(=O)NCc2ccccc2)c2ccc(Cl)cc2)SCCO1
1240	O=S(=O)(c1cc(-c2noc(C3CCCC3)n2)cs1)N1CCCCC1
802	CCc1cc(=O)n(CC(=O)Nc2cc(C)cc(C)c2)c(N2CCOCC2)n1
643	COC[C@@H]1[C@H](C(=O)NCCC(C)C)CCC(=O)N1C
716	COC(=O)c1c(C)[nH]c(C(=O)N2CCC(CC(=O)N3CCCCC3)CC2)c1C
557	CCN1CCN(CCNC(=O)Cn2ccc3c(C)nn(CC)c3c2=O)CC1
1090	O=C(NCCC1=CCCCC1)C1CCCN(c2nc3ccsc3c(=O)n2Cc2ccc(F)cc2)C1 (stereo not drawn)
745	CCCNC(=O)CSc1cn(CC(=O)N2CC(C)OC(C)C2)c2ccccc12 (stereo not drawn)
598	CCOC(=O)c1csc(NC(=O)Cn2cnc(C)cc2=O)n1
1030	COc1ccc(N2CC(c3noc(-c4cccc(Cl)c4)n3)CC2=O)cc1 (stereo not drawn)
713	COc1ccc(-c2cc(C(=O)N3CCC(NC(=O)C4CCCC4)CC3)[nH]n2)cc1
